The numbers were not newly measured in patent publication US20100029716A1, “NOVEL 1,2,3,4- TETRAHYDROQUINOLINE DERIVATIVES” (CONCERT PHARMACEUTICALS, INC., priority 2006, published 2010), which cites them from elsewhere.

The conditions of series [1]: healthy volunteers, 14-day dosing period.
Another series addresses T1, human CETP (Homo sapiens, UniProt P11597).
T1 construct: host or cells: transgenic mice expressing human CETP and apolipoprotein A1 (hCETP mice)
T1 sequence (P11597 18-493): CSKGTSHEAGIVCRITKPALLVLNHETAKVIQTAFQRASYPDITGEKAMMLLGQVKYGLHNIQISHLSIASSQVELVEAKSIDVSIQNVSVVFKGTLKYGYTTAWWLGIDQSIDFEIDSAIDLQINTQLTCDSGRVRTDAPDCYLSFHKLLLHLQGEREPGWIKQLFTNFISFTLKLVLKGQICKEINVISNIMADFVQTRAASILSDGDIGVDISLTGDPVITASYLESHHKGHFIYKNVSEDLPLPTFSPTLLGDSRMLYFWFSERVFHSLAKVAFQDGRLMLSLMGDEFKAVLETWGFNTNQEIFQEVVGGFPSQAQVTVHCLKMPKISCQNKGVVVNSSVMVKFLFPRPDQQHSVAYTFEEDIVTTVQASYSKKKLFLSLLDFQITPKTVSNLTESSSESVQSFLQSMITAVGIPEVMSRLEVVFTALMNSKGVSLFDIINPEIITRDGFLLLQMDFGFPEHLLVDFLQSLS
The settings on record: transgenic hCETP mice.

For a further series, the system named is atherosclerotic lesions. The note with it: rabbit model of atherosclerosis.
For series [2] the following is noted: conventional formulations.

With `CCOC(=O)N1c2ccc(C(F)(F)F)cc2[C@@H](N(Cc2cc(C(F)(F)F)cc(C(F)(F)F)c2)C(=O)OC)C[C@H]1CC` [Compound 1, (2R,4S)-ethyl 4-((3,5-bis(trifluoromethyl)benzyl)-(methoxycarbonyl)amino)-2-ethyl-6-(trifluoromethyl)-3,4-dihydroquinoline-1(2H)-carboxylate], the aqueous solubility result was “poor”. Besides, in series [1], the “increase of HDL cholesterol levels” value is reported as “up to 91%” and the “reduction of LDL cholesterol” value was “up to 42%”. At human CETP, the “rate of cholesterol oleate transfer from LDL donor particles to HDL” value was “decreased rates”. The HDL cholesterol result on human CETP (multiple dosing) is “increased HDL cholesterol”. In addition, the “formation of atherosclerotic lesions” value with atherosclerotic lesions was “reduce the formation of atherosclerotic lesions”. The oral bioavailability entry in series [2] is recorded as “low”.
